Laboratory results reported in US20230135729A1, “COMPOUND WITH ANTI-SPORE ACTIVITY AND PHARMACEUTICAL COMPOSITION THEREOF” (priority 2020, published 2023).
Values after ≈ are worked out from the molar mass of the structure shown.

Tests used:
Type in all cases: cell-based
[1] = system: spores of ATCC BBA1870 strain; assay: Inhibition of germination of C. difficile spores (MIC), strain ATCC BBA1870; details: Clostridioides difficile, ATCCBBA1870STRAIN, 1 h; strain 1870; sodium taurocholate as germinant, BHIS medium, 37° C., OD580 for 60 min; read-out: MIC (minimum concentration that completely inhibits spore germination)
Outline: (§1)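 Spores heat-activated for 30 min at 65° C and washed, then preincubated with compound (10 mM DMSO stock) in BHIS at 37° C. Germination was triggered with sodium taurocholate, and OD580 was read each minute for 60 min. Inhibition = 100% − germination rate, from final vs initial OD relative to germinant-only controls.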

[2] = system: spores of ATCC 43255 strain; assay: Inhibition of germination of C. difficile spores (MIC), strain ATCC 43255; details: Clostridioides difficile, ATCC43255, 1 h; strain 43255; sodium taurocholate as germinant, BHIS medium, 37° C., OD580 for 60 min; read-out: MIC (minimum concentration that completely inhibits spore germination)
Outline: as §1

[3] = system: spores of ATCC 630 strain; assay: Inhibition of germination of C. difficile spores (MIC), strain ATCC 630; details: Clostridioides difficile, ATCC630, 1 h; strain 630; sodium taurocholate as germinant, BHIS medium, 37° C., OD580 for 60 min; read-out: MIC (minimum concentration that completely inhibits spore germination)
Outline: as §1

[4] = system: various C. difficile spores; assay: Inhibition of germination of C. difficile spores, summary over the strains; details: Clostridioides difficile; Table 1, all strains
Experimental: According to a method disclosed in “The Journal of Infectious Diseases. 2013; 207: 1498-504”, spores of ATCC BBA1870, ATCC 43255 and ATCC 630 strains were obtained by culture and purification, and stored at 4° C.
Spore preparation: the C. difficile spores stored at 4° C. were heat-activated for 30 min at 65° C., centrifuged at 9,400 g for 2 min, and washed three times to remove any self-germinating spores.
Control drug: three cholic acid derivatives, a compound CamSA, a compound 20β (prepared by the method of “Journal of Medicinal Chemistry. 2017, 60 (8): 3451-3471”), and a compound 12a (prepared by the method of “Journal of Medicinal Chemistry. 2018, 61, 6759-6778”), were used as control drugs.
Compound preparation: the compound of the present disclosure, and the positive control drugs CamSA, 20β, and 12a were dissolved in DMSO, to prepare a stock solution with a concentration of 10 mM (prepared for immediate use).
The detection was conducted in a 96-well cell culture plate at a constant temperature of 37° C.; a final volume of each well of the 96-well plate was […] and a buffer was the BHIS medium; 150 μl of spores and drugs were added to the well in advance, and 50 μl of 4 mg/ml sodium taurocholate was added; OD580 was detected every 1 min immediately using a microplate reader, for continuously 60 min. A germination agent control group and a non-germination group were set up; after the detection, a final OD value of each well was compared with an initial value, and compared with the germination agent group to calculate a germination rate and an inhibition rate. A formula for the germination rate was:
Inhibition rate=100%−germination rate.

| SMILES | MIC [1] | MIC [2] | MIC [3] | MIC [4] |
| --- | --- | --- | --- | --- |
| C[C@H](CC(=O)N[C@@H](c1cccs1)C1CC1)[C@H]1CC[C@H]2[C@@H]3C(=O)C[C@@H]4CC(=O)CC[C@]4(C)[C@H]3CC[C@]12C [Compound I-50] | 0.25 µM (≈ 0.127 µg/mL) | 0.25 µM (≈ 0.127 µg/mL) | 0.25 µM (≈ 0.127 µg/mL) | ≤ 1 µM |
| C[C@H](CC(=O)NC(c1cccs1)C1CC1)[C@H]1CC[C@H]2[C@@H]3C(=O)C[C@@H]4CC(=O)CC[C@]4(C)[C@H]3CC[C@]12C (stereo partly shown) [Compound I-48] | 0.5 µM (≈ 0.255 µg/mL) | 0.5 µM (≈ 0.255 µg/mL) | 0.5 µM (≈ 0.255 µg/mL) | ≤ 1 µM |
| CC[C@@H](NC(=O)C[C@@H](C)[C@H]1CC[C@H]2[C@@H]3C(=O)C[C@@H]4CC(=O)CC[C@]4(C)[C@H]3CC[C@]12C)c1cccs1 [Compound I-37] | 0.25 µM (≈ 0.124 µg/mL) | 0.25 µM (≈ 0.124 µg/mL) | 0.25 µM (≈ 0.124 µg/mL) | ≤ 1 µM |
| C[C@H](CC(=O)NC(c1ccc(Cl)s1)C1CC1)[C@H]1CC[C@H]2[C@@H]3C(=O)C[C@@H]4CC(=O)CC[C@]4(C)[C@H]3CC[C@]12C (stereo partly shown) [Compound I-51] | 0.5 µM (≈ 0.272 µg/mL) | 0.5 µM (≈ 0.272 µg/mL) | 0.5 µM (≈ 0.272 µg/mL) | ≤ 1 µM |
| CCC(NC(=O)C[C@@H](C)[C@H]1CC[C@H]2[C@@H]3C(=O)C[C@@H]4CC(=O)CC[C@]4(C)[C@H]3CC[C@]12C)c1cccs1 (stereo partly shown) [Compound I-35] | 0.5 µM (≈ 0.249 µg/mL) | 0.5 µM (≈ 0.249 µg/mL) | 0.5 µM (≈ 0.249 µg/mL) | ≤ 1 µM |
| C[C@H](CC(=O)NCc1cccnc1)[C@H]1CC[C@H]2[C@@H]3[C@H](O)C[C@@H]4C[C@H](O)CC[C@]4(C)[C@H]3CC[C@]12C [Compound I-5] | 16 µM (≈ 7.5 µg/mL) | 16 µM (≈ 7.5 µg/mL) | 32 µM (≈ 15 µg/mL) |  |
| CC[C@@H](NC(=O)C[C@@H](C)[C@H]1CC[C@H]2[C@@H]3[C@H](O)CC4=CC(=O)C=C[C@]4(C)[C@H]3CC[C@]12C)c1ccc(Br)s1 [Compound I-159-2] | 0.5 µM (≈ 0.287 µg/mL) | 0.5 µM (≈ 0.287 µg/mL) | 0.5 µM (≈ 0.287 µg/mL) |  |
| CCCC(NC(=O)C[C@@H](C)[C@H]1CC[C@H]2[C@@H]3C(=O)C[C@@H]4CC(=O)CC[C@]4(C)[C@H]3CC[C@]12C)c1cccs1 (stereo partly shown) [Compound I-41] | 0.5 µM (≈ 0.256 µg/mL) | 0.5 µM (≈ 0.256 µg/mL) | 0.5 µM (≈ 0.256 µg/mL) | ≤ 1 µM |
| CC[C@@H](NC(=O)C[C@@H](C)[C@H]1CC[C@H]2[C@@H]3[C@H](OP(=O)(O)O)C[C@@H]4CC(=O)CC[C@]4(C)[C@H]3CC[C@]12C)c1ccc(Br)s1 [Compound I-192] | 64 µM (≈ 42.2 µg/mL) | 64 µM (≈ 42.2 µg/mL) | 64 µM (≈ 42.2 µg/mL) |  |
| CC(NC(=O)C[C@@H](C)[C@H]1CC[C@H]2[C@@H]3C(=O)C[C@@H]4CC(=O)CC[C@]4(C)[C@H]3CC[C@]12C)c1ccc(Cl)s1 (stereo partly shown) [Compound I-32] | 0.5 µM (≈ 0.259 µg/mL) | 0.5 µM (≈ 0.259 µg/mL) | 0.5 µM (≈ 0.259 µg/mL) | ≤ 1 µM |
| CCCCCCCC(=O)O[C@@H]1C[C@@H]2CC(=O)CC[C@]2(C)[C@H]2CC[C@]3(C)[C@@H]([C@H](C)CC(=O)N[C@@H](c4ccc(Br)s4)C(C)C)CC[C@H]3[C@H]12 [Compound I-186] | 256 µM (≈ 184 µg/mL) | 256 µM (≈ 184 µg/mL) | 256 µM (≈ 184 µg/mL) |  |
